The values below come from patent US6969702B2, “Compounds and methods for increasing neurogenesis” (priority 2002, dated 2005).

For data set [1], the system named is mouse adult neural stem cells. The note with it: 0.1 µM.
For data set [2], the system named is cAMP activation in mouse adult neural stem cells.
The subject of data set [3] is Adult neural stem cells. The settings on record: 0.1 µM.
Data set [4] has as its system Adult neural stem cells. In words: Flow cytometry for early neuronal marker Doublecortin. The note with it: for Fold Induction (Doublecortin-positive cells): vs EGF/FGF. (In flow cytometry, cells or beads pass a laser one at a time.)
Data set [5] deals with cAMP activation in mouse adult neural stem cells. Put plainly: cAMP detection (HitHunter EFC Cyclic AMP Chemiluminescence Assay). The settings on record: Table 2; for Fold Induction cAMP: vs vehicle.
Data set [6] has as its system mouse adult neural stem cells. In words: ATP-assay: proliferation (ATP levels) of neurosphere-derived cells.
Data set [7] concerns NFAT-Luciferace reporter (Ca^2+). The settings on record: Table 4; for NFAT Luciferace units: 24 hours after induction; for Fold Induction NFAT: vs vehicle.
Where [8] appears, read: Table 2, 10 nM, 4 days, vs vehicle.

Structures are written as SMILES. Like-named read-outs stand apart in the source and are kept apart here. Marks after values point to notes of the source that are not given here. Bridge positions count the residues as written; N and C are the ends. Square brackets hold non-standard residues; d marks the D form. Peptide text beside a SMILES is read from it. pGlu = O=C1CC[C@@H](C(=O)O)N1

Take `CC[C@H](C)[C@H](NC(=O)[C@H](CCC(N)=O)NC(=O)[C@H](Cc1c[nH]cn1)NC(=O)[C@H](C)NC(=O)[C@H](CC(C)C)NC(=O)[C@H](CCCCN)NC(=O)[C@H](CCC(N)=O)NC(=O)[C@@H](NC(=O)[C@@H](N)[C@@H](C)O)C(C)C)C(=O)N[C@@H](Cc1ccc(O)cc1)C(=O)N[C@@H](CCC(N)=O)C(=O)N[C@@H](Cc1ccccc1)C(=O)N[C@H](C(=O)N[C@@H](CC(=O)O)C(=O)N[C@@H](CCCCN)C(=O)N[C@@H](CC(=O)O)C(=O)N[C@@H](CCCCN)C(=O)N[C@@H](CC(=O)O)C(=O)N[C@@H](CC(N)=O)C(=O)N[C@H](C(=O)N[C@@H](C)C(=O)N1CCC[C@H]1C(=O)N[C@@H](CCCNC(=N)N)C(=O)N[C@@H](CO)C(=O)N[C@@H](CCCCN)C(=O)N[C@H](C(=O)N[C@@H](CO)C(=O)N1CCC[C@H]1C(=O)N[C@@H](CCC(N)=O)C(=O)NCC(=O)N[C@@H](Cc1ccc(O)cc1)C(N)=O)[C@@H](C)CC)C(C)C)[C@@H](C)O` [Adrenomedullin (22-52)]: the “Fold Induction ATP” value in data set [1] was 1.6** fold. Further, in data set [2] (0.1 µM), the “Fold Induction cAMP” value is 1.6* fold. For the same compound, in the data set on Adult neural stem cells [3], the “Fold Induction (Doublecortin-positive cells)” value is on record as 0.8 fold. Further, the “% Doublecortin-positive cells” value in the data set with Adult neural stem cells [4] is listed as 2.0%. Further, the “cAMP (pmol/well)” value in data set [5] (100 nM (cAMP concentration)) came to 0.34 ± 0.07 pmol/well. Moreover, the “ATP (nM ATP/well)” value in data set [6] (Table 2, 100 nM, 4 days) is reported as 12.3 ± 1.1 nM ATP/well.
As to `CC[C@H](C)[C@H](NC(=O)[C@H](Cc1ccccc1)NC(=O)[C@H](C)NC(=O)[C@H](CC(=O)O)NC(=O)[C@H](CCCCN)NC(=O)[C@H](CO)NC(=O)[C@@H]1CCCN1C(=O)[C@@H]1CCC(=O)N1)C(=O)NCC(=O)N[C@@H](CC(C)C)C(=O)N[C@@H](CCSC)C(N)=O` [Eledoisin] ([pGlu]PSKDAFIGLM-NH2), the “Fold Induction ATP” value in data set [1] (mouse) is reported as 1.2* fold. For the same compound, the “Fold Induction cAMP” value in data set [2] (mouse, 0.001 µM) was 1.2* (1 nM) fold. For the same compound, the “Fold Induction (Doublecortin-positive cells)” value in the data set with Adult neural stem cells [3] (mouse) came out at 1.7 fold. Moreover, the “% Doublecortin-positive cells” value with Adult neural stem cells [4] (Table 6, 100 nM, 4 days) is given as 4.3%. Further, the “cAMP (pmol/well)” value in data set [5] (1 nM (cAMP concentration)) is listed as 1.0 ± 0.06 pmol/well. The “ATP (nM ATP/well)” value in data set [6] (Table 2, 100 nM, 4 days) is on record as 10.4 ± 1.1 nM ATP/well.
Regarding `CC[C@H](C)[C@H](NC(=O)[C@H](CC(=O)O)NC(=O)[C@H](CC(C)C)NC(=O)[C@H](Cc1cnc[nH]1)NC(=O)[C@@H]1CSSC[C@H](N)C(=O)N[C@@H](CO)C(=O)N[C@H]2CSSC[C@H](NC(=O)[C@H](CCC(=O)O)NC(=O)[C@H](CCCCN)NC(=O)[C@H](CC(=O)O)NC(=O)[C@H](CCSC)NC(=O)[C@H](CC(C)C)NC(=O)[C@H](CO)NC(=O)[C@H](CO)NC2=O)C(=O)N[C@@H](C(C)C)C(=O)N[C@@H](Cc2ccc(O)cc2)C(=O)N[C@@H](Cc2ccccc2)C(=O)N1)C(=O)N[C@H](C(=O)N[C@@H](Cc1c[nH]c2ccccc12)C(=O)O)[C@@H](C)CC` [Endothelin-1 (human, porcine)], the “NFAT Luciferace units” value in data set [7] (10 nM) came out at 13.3 ± 1.3 Luciferace units. The “Fold Induction NFAT” value in data set [7] (10 nM) is 1.6** fold. Further, the “% Doublecortin-positive cells” value in the data set with Adult neural stem cells [4] (Table 6, 10 nM, 4 days) is reported as 5.0%. In addition, in the data set on Adult neural stem cells [4] (Table 6, 10 nM), the “Fold Induction (Doublecortin-positive cells)” value is reported as 2.0 fold. The “cAMP (pmol/well)” value in data set [5] (10 nM (cAMP concentration)) turned out to be 3.64 ± 1.13 pmol/well. For the same compound, in data set [5] (10 nM), the “Fold Induction cAMP” value was 2.0* fold. Besides, the “ATP (nM ATP/well)” value in data set [6] (Table 2, 10 nM, 4 days) is recorded as 41.7 ± 7.2 nM ATP/well; in data set [6] (Table 4; 10 nM; Porcine,)), 35.3 ± 3.7 nM ATP/well. The “Fold Induction ATP” value in data set [6] (setting [8]) is 2.5* fold; in data set [6] (Table 4; 10 nM; vs vehicle; Porcine,), 0.01 µM) it was 1.3* fold.
Consider `CC[C@H](C)[C@H](NC(=O)CNC(=O)[C@H](CC(=O)O)NC(=O)[C@H](CO)NC(=O)[C@@H](N)Cc1cnc[nH]1)C(=O)N[C@@H](Cc1ccccc1)C(=O)N[C@H](C(=O)N[C@@H](CC(=O)O)C(=O)N[C@@H](CO)C(=O)N[C@@H](Cc1ccc(O)cc1)C(=O)N[C@@H](CO)C(=O)N[C@@H](CCCNC(=N)N)C(=O)N[C@@H](Cc1ccc(O)cc1)C(=O)N[C@@H](CCCNC(=N)N)C(=O)N[C@@H](CCCCN)C(=O)N[C@@H](CCC(N)=O)C(=O)N[C@@H](CCSC)C(=O)N[C@@H](C)C(=O)N[C@H](C(=O)N[C@@H](CCCCN)C(=O)N[C@@H](CCCCN)C(=O)N[C@@H](Cc1ccc(O)cc1)C(=O)N[C@@H](CC(C)C)C(=O)N[C@@H](C)C(=O)N[C@@H](C)C(=O)N[C@H](C(=O)N[C@@H](CC(C)C)C(=O)NCC(=O)N[C@@H](CCCCN)C(=O)N[C@@H](CCCNC(=N)N)C(=O)N[C@@H](Cc1ccc(O)cc1)C(=O)N[C@@H](CCCCN)C(=O)N[C@@H](CCC(N)=O)C(=O)N[C@@H](CCCNC(=N)N)C(=O)N[C@H](C(=O)N[C@@H](CCCCN)C(=O)N[C@@H](CC(N)=O)C(=O)N[C@@H](CCCCN)C(N)=O)C(C)C)C(C)C)C(C)C)[C@@H](C)O` [PACAP-38], for which the “NFAT Luciferace units” value in data set [7] (10 nM) is given as 6.2 ± 1.6 Luciferace units. In addition, in data set [7] (10 nM), the “Fold Induction NFAT” value was 1.7* fold. Also, the “% Doublecortin-positive cells” value in the data set with Adult neural stem cells [4] (Table 6, 100 nM, 4 days) amounted to 5.2%. Moreover, the “Fold Induction (Doublecortin-positive cells)” value in the data set on Adult neural stem cells [4] (Table 6, 100 nM) stood at 2.0 fold. Besides, in data set [5] (100 nM (cAMP concentration)), the “cAMP (pmol/well)” value was determined as 0.13 ± 0.03 pmol/well. For the same compound, the “Fold Induction cAMP” value in data set [5] (100 nM) was 4.2** fold. Besides, the “ATP (nM ATP/well)” value is listed as 26.9 ± 3.7 nM ATP/well in data set [6] (Table 2, 100 nM, 4 days) and 22.0 ± 0.9 nM ATP/well in data set [6] (Table 4, 10 nM). For the same compound, the “Fold Induction ATP” value in data set [6] (Table 2, 100 nM, 4 days, vs vehicle) is reported as 2.9** fold; in data set [6] (Table 4, 10 nM, vs vehicle), 2.3*** fold.
`CC[C@H](C)[C@H](NC(=O)[C@@H](NC(=O)[C@H](CC(=O)O)NC(=O)[C@H](CCC(N)=O)NC(=O)[C@H](Cc1c[nH]cn1)NC(=O)[C@@H]1CSSC[C@H](N)C(=O)N[C@@H](CO)C(=O)N[C@H]2CSSC[C@H](NC(=O)[C@H](CCC(=O)O)NC(=O)[C@H](CCCCN)NC(=O)[C@H](CC(=O)O)NC(=O)[C@H]([C@@H](C)O)NC(=O)[C@H](CCSC)NC(=O)[C@H](CC(=O)O)NC(=O)[C@H](CCCCN)NC2=O)C(=O)N[C@@H](CC(C)C)C(=O)N[C@@H](CC(N)=O)C(=O)N[C@@H](Cc2ccccc2)C(=O)N1)C(C)C)C(=O)N[C@@H](Cc1c[nH]c2ccccc12)C(=O)O` [Sarafotoxin S6a] (H-CSCKDMTDKECLNFCHQDVIW-OH; disulfide 1-15, 3-11; N-terminus and C-terminus assumed): the “NFAT Luciferace units” value in data set [7] (1 nM) is listed as 6.3 ± 2.4 Luciferace units. Also, in data set [7] (1 nM), the “Fold Induction NFAT” value is reported as 3.4* fold. Besides, the “% Doublecortin-positive cells” value in the data set with Adult neural stem cells [4] (Table 6, 100 nM, 4 days) was determined as 3.2%. In addition, in the data set on Adult neural stem cells [4] (Table 6, 100 nM), the “Fold Induction (Doublecortin-positive cells)” value came out at 1.3 fold. For the same compound, in data set [5] (10 nM (cAMP concentration)), the “cAMP (pmol/well)” value is 0.41 ± 0.06 pmol/well. In data set [5] (10 nM), the “Fold Induction cAMP” value is 1.4* fold. Also, the “ATP (nM ATP/well)” value in data set [6] (Table 2, 10 nM, 4 days) was found to be 43.3 ± 4.5 nM ATP/well; in data set [6] (Table 4, 1 nM), 38.9 ± 3.2 nM ATP/well. Also, the “Fold Induction ATP” value in data set [6] (setting [8]) is listed as 3.5*** fold; in data set [6] (Table 4, 1 nM, vs vehicle) it was 3.1*** fold.
With `CC1(C)SSC(C)(C)[C@@H](NC(=O)[C@@H](N)Cc2ccc(O)cc2)C(=O)NCC(=O)N[C@@H](Cc2ccccc2)C(=O)N[C@H]1C(=O)O` [[D-Pen2-5]-Enkephalin], the “NFAT Luciferace units” value in data set [7] (100 nM) worked out at 10.3 ± 2.1 Luciferace units. For the same compound, the “Fold Induction NFAT” value in data set [7] (100 nM) is 1.8* fold. Besides, the “% Doublecortin-positive cells” value with Adult neural stem cells [4] (Table 6, 100 nM, 4 days) came to 3.3%. Besides, the “Fold Induction (Doublecortin-positive cells)” value with Adult neural stem cells [4] (Table 6, 100 nM) was found to be 1.3 fold. Further, in data set [5] (10 nM (cAMP concentration)), the “cAMP (pmol/well)” value is 0.06 ± 0.01 pmol/well. For the same compound, the “Fold Induction cAMP” value in data set [5] (10 nM) is given as 1.7* fold. The “ATP (nM ATP/well)” value in data set [6] (Table 2, 10 nM, 4 days) was determined as 10.7 ± 0.9 nM ATP/well; in data set [6] (Table 4, 10 nM), 10.7 ± 0.9 nM ATP/well. The “Fold Induction ATP” value in data set [6] (setting [8]) is 1.2** fold; in data set [6] (Table 4, 10 nM, vs vehicle), 1.2* fold.
